Measurements: ChEMBL document CHEMBL5543126, “Combinatorial Ubiquitination REal-time PROteolysis (CURE-PROs): A Modular Platform for Generating Reversible, Self-Assembling Bifunctional Targeted Degraders” (J Med Chem, 2024)
One block for each compound: values may come before it. Calls of active or inactive are those of the source. The rule behind the calls is not given here.

Columns and labels:
NAMALVA [1] = assay: Antiproliferative activity against human NAMALVA cells assessed as reduction in cell viability incubated for 72 hrs by celltiter-glo assay; format: functional, cell-based
[2] = biological target: T1, BRD4/E3 ubiquitin-protein ligase Mdm2 (Homo sapiens) (UniProt Q00987+O60885); assay: PROTAC activity at MDM2/BRD4 in human HCT-116 cells assessed as induction of BRD4 degradation incubated for 6 hrs; format: cell-based
[3] = biological target: T1, BRD4/E3 ubiquitin-protein ligase Mdm2 (Homo sapiens); assay: PROTAC activity at MDM2/BRD4 in human HCT-116 cells assessed as downregulation of SLC19A1 level at 10 uM incubated for 24 hrs by qPCR analysis; format: cell-based
NAMALVA [4] = assay: Antiproliferative activity against human NAMALVA cells assessed as reduction in cell viability incubated for 72 hrs in presence of BRD4 ligand based (86)-N-(2-(2-(((4S)-6-(4-chlorophenyl)-4-(2-(ethylamino)-2-oxoethyl)-1-methyl-4H-benzo[f][1,2,4]triazolo[4,3-a][1,4]diazepin-8-yl)oxy)ethoxy)ethyl)-2,3-dihydroxybenzamide by celltiter-glo assay; format: functional
[5] = biological target: T1, BRD4/E3 ubiquitin-protein ligase Mdm2 (Homo sapiens); assay: (§1) PROTAC activity at MDM2/BRD4 in human HCT-116 cells assessed as induction of BRD4 degradation incubated for 6 hrs in presence of BRD4 ligand based (86)-N-(2-(2-(((4S)-6-(4-chlorophenyl)-4-(2-(ethylamino)-2-oxoethyl)-1-methyl-4H-benzo[f][1,2,4]triazolo[4,3-a][1,4]diazepin-8-yl)oxy)ethoxy)ethyl)-2,3-dihydroxybenzamide by Combinatorial Ubiquitination Real-time PROteolysis analysis; format: cell-based
[6] = biological target: T1, BRD4/E3 ubiquitin-protein ligase Mdm2 (Homo sapiens); assay: PROTAC activity at MDM2/BRD4 in human HCT-116 cells assessed as downregulation of SLC19A1 level at 10 uM incubated for 24 hrs in presence of BRD4 ligand based (86)-N-(2-(2-(((4S)-6-(4-chlorophenyl)-4-(2-(ethylamino)-2-oxoethyl)-1-methyl-4H-benzo[f][1,2,4]triazolo[4,3-a][1,4]diazepin-8-yl)oxy)ethoxy)ethyl)-2,3-dihydroxybenzamid by qPCR based Combinatorial Ubiquitination Real-time PROteolysis analysis; format: cell-based
[7] = biological target: T1, BRD4/E3 ubiquitin-protein ligase Mdm2 (Homo sapiens); assay: as §1, with “activation” for “induction”, “caspase 3/7” for “BRD4 degradation”; format: cell-based
[8] = biological target: T2, Protein cereblon/Bromodomain-containing protein 4 (Homo sapiens) (UniProt O60885+Q96SW2); assay: PROTAC activity at BRD4/CRBN in human HeLa cells assessed as induction of BRD4 degradation at 0.1 to 10 uM in presence of N-((2-(2,6-dioxopiperidin-3-yl)-1,3-dioxoisoindolin-4-yl)methyl)-2,3-dihydroxybenzamide by Combinatorial Ubiquitination Real-time PROteolysis analysis; format: cell-based; conditions: dose 0.1-10 µM
[9] = biological target: T2, Protein cereblon/Bromodomain-containing protein 4 (Homo sapiens); assay: PROTAC activity at BRD4/CRBN in human HeLa cells assessed as induction of BRD4 degradation at 10 uM incubated for 24 hrs in presence of JQ1 by Western blot analysis; format: cell-based
[10] = biological target: T2, Protein cereblon/Bromodomain-containing protein 4 (Homo sapiens); assay: PROTAC activity at BRD4/CRBN in human HeLa cells assessed as induction of BRD4 degradation at 10 uM incubated for 24 hrs in presence of CRBN based ligand N-((2-(2,6-dioxopiperidin-3-yl)-1,3-dioxoisoindolin-4-yl)methyl)-2,3-dihydroxybenzamide by Combinatorial Ubiquitination Real-time PROteolysis analysis; format: cell-based
NAMALVA [11] = assay: Antiproliferative activity against human NAMALVA cells assessed as reduction in cell viability incubated for 72 hrs in presence of MDM2 ligand based (4-((2-(4-((4S,5R)-4,5-bis(4-chlorophenyl)-2-(2-isopropoxy-4-methoxyphenyl)-4,5-dihydro-1H-imidazole-1-carbonyl)-2-oxopiperazin-1-yl)ethyl)carbamoyl)phenyl)boronic acid by celltiter-glo assay; format: functional
[12] = biological target: T1, BRD4/E3 ubiquitin-protein ligase Mdm2 (Homo sapiens); assay: PROTAC activity at MDM2/BRD4 in human HCT-116 cells assessed as downregulation of SLC19A1 level at 10 uM incubated for 24 hrs in presence of MDM2 ligand based (4-((2-(4-((4S,5R)-4,5-bis(4-chlorophenyl)-2-(2-isopropoxy-4-methoxyphenyl)-4,5-dihydro-1H-imidazole-1-carbonyl)-2-oxopiperazin-1-yl)ethyl)carbamoyl)phenyl)boronic acid by qPCR based Combinatorial Ubiquitination Real-time PROteolysis analysis; format: cell-based
[13] = biological target: T1, BRD4/E3 ubiquitin-protein ligase Mdm2 (Homo sapiens); assay: (§2) PROTAC activity at MDM2/BRD4 in human HCT-116 cells assessed as induction of BRD4 degradation incubated for 6 hrs in presence of MDM2 ligand based (4-((2-(4-((4S,5R)-4,5-bis(4-chlorophenyl)-2-(2-isopropoxy-4-methoxyphenyl)-4,5-dihydro-1H-imidazole-1-carbonyl)-2-oxopiperazin-1-yl)ethyl)carbamoyl)phenyl)boronic acid by Combinatorial Ubiquitination Real-time PROteolysis analysis; format: cell-based
[14] = biological target: T1, BRD4/E3 ubiquitin-protein ligase Mdm2 (Homo sapiens); assay: as §2, with “activation” for “induction”, “caspase3/7” for “BRD4 degradation”; format: cell-based
[15] = biological target: von Hippel-Lindau disease tumor suppressor/Bromodomain-containing protein 4 (Homo sapiens, UniProt O60885+P40337); assay: PROTAC activity at BRD4/VHL in human MCF7 cells assessed as reduction in BRD4 level incubated for 24 hrs in presence of VHL based ligand (2S,4R)-1-((S)-2-(3,4-dihydroxybenzamido)-3,3-dimethylbutanoyl)-4-hydroxy-N-(4-(4-methylthiazol-5-yl)benzyl)pyrrolidine-2-carboxamide by Western blot based Combinatorial Ubiquitination Real-time PROteolysis analysis; format: cell-based
[16] = biological target: T3, Protein cereblon/Bromodomain-containing protein 3 (Homo sapiens) (UniProt Q15059+Q96SW2); assay: PROTAC activity at BRD3/CRBN in human HeLa cells assessed as induction of BRD3 degradation at 10 uM in presence of CRBN ligand based N-((2-(2,6-dioxopiperidin-3-yl)-1,3-dioxoisoindolin-4-yl)methyl)-2,3-dihydroxybenzamide incubated for 24 hrs by Combinatorial Ubiquitination Real-time PROteolysis analysis; format: cell-based
[17] = biological target: T3, Protein cereblon/Bromodomain-containing protein 3 (Homo sapiens); assay: PROTAC activity at BRD2/CRBN in human HeLa cells assessed as induction of BRD2 degradation at 10 uM in presence of CRBN ligand based N-((2-(2,6-dioxopiperidin-3-yl)-1,3-dioxoisoindolin-4-yl)methyl)-2,3-dihydroxybenzamide incubated for 24 hrs by Combinatorial Ubiquitination Real-time PROteolysis analysis; format: cell-based
[18] = biological target: T2, Protein cereblon/Bromodomain-containing protein 4 (Homo sapiens); assay: PROTAC activity at BRD4/CRBN in human HeLa cells assessed as induction of BRD4 degradation in presence of N-((2-(2,6-dioxopiperidin-3-yl)-1,3-dioxoisoindolin-4-yl)methyl)-2,3-dihydroxybenzamide by Combinatorial Ubiquitination Real-time PROteolysis analysis; format: cell-based; conditions: dose 0.1-10 µM
[19] = biological target: T2, Protein cereblon/Bromodomain-containing protein 4 (Homo sapiens); assay: PROTAC activity at BRD4/CRBN in human HeLa cells assessed as induction of BRD4 degradation at 10 uM incubated for 24 hrs in presence of BRD4 based ligand (3-((4S)-6-(4-chlorophenyl)-4-(2-(ethylamino)-2-oxoethyl)-1-methyl4H-benzo[f][1,2,4]triazolo[4,3-a][1,4]diazepin-8-yl)phenyl)boronic acid by Combinatorial Ubiquitination Real-time PROteolysis analysis; format: cell-based
[20] = biological target: T3, Protein cereblon/Bromodomain-containing protein 3 (Homo sapiens); assay: PROTAC activity at BRD3/CRBN in human HeLa cells assessed as induction of BRD3 degradation at 10 uM in presence of BRD3 ligand based (3-((4-((4S)-4-(2-(ethylamino)-2-oxoethyl)-8-methoxy-1-methyl4Hbenzo[f][1,2,4]triazolo[4,3-a][1,4]diazepin-6-yl)phenyl)thio)phenyl)boronic acid incubated for 24 hrs by Combinatorial Ubiquitination Real-time PROteolysis analysis; format: cell-based
BRD2/CRBN (Homo sapiens) = assay: PROTAC activity at BRD2/CRBN in human HeLa cells assessed as induction of BRD2 degradation at 10 uM in presence of BRD3 ligand based (3-((4-((4S)-4-(2-(ethylamino)-2-oxoethyl)-8-methoxy-1-methyl4Hbenzo[f][1,2,4]triazolo[4,3-a][1,4]diazepin-6-yl)phenyl)thio)phenyl)boronic acid incubated for 24 hrs …

T2 sequence (Q96SW2 whole entry, looked up, other chains not shown): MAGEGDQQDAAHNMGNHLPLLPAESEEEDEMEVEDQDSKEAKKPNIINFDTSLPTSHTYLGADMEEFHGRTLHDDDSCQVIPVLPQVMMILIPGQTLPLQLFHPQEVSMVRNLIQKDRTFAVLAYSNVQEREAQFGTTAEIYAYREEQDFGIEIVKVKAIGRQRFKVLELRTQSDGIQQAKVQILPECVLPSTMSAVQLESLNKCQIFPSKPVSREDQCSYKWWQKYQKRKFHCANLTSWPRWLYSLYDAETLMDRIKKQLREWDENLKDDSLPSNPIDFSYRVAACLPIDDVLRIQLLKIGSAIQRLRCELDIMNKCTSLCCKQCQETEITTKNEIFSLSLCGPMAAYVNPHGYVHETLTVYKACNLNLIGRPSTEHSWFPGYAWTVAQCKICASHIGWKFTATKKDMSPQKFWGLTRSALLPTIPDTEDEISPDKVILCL
T1 sequence (Q00987 whole entry, looked up, other chains not shown): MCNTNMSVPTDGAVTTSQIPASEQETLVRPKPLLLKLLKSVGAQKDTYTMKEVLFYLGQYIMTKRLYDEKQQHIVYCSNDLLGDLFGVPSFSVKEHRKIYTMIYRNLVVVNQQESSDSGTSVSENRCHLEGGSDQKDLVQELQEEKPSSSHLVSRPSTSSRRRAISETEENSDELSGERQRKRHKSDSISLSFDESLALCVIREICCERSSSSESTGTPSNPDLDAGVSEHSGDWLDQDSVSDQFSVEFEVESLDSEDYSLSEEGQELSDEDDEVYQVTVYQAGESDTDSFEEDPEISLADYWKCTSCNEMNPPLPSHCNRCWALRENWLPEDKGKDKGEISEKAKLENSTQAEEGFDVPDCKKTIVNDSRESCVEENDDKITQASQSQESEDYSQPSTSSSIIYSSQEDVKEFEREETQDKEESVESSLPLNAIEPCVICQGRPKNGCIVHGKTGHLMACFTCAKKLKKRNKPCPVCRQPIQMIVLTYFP
T3 sequence (Q15059 2-726 limits assumed): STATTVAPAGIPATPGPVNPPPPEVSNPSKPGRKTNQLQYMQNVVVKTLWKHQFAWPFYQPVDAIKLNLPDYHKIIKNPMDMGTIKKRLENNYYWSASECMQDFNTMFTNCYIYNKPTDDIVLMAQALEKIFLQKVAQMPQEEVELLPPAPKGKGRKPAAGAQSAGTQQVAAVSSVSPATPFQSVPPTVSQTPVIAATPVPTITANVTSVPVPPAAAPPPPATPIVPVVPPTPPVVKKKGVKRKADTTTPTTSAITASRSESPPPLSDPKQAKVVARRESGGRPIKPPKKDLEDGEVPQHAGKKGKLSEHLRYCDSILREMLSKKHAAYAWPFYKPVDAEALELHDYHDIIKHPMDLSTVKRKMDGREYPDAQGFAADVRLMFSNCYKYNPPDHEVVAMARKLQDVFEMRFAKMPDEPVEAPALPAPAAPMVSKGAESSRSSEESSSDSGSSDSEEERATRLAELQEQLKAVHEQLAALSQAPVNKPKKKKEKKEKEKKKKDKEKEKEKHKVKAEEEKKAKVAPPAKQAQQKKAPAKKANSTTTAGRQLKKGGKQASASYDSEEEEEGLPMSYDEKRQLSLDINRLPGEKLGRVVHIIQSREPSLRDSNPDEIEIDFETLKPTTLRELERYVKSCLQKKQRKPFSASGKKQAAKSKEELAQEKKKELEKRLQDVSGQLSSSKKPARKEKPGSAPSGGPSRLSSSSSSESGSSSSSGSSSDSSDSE
T3 sequence (Q96SW2 whole entry partner): as the sequence (Q96SW2 whole entry, looked up, other chains not shown) above
Chain of von Hippel-Lindau disease tumor suppressor/Bromodomain-containing protein 4 (P40337 whole entry, looked up, other chains not shown): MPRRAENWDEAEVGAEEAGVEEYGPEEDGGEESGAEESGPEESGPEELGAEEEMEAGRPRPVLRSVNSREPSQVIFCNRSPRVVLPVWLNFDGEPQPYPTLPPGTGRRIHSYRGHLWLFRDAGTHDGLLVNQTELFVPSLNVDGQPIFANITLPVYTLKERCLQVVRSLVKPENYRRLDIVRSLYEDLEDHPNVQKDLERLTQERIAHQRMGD

SMILES: CCNC(=O)C[C@@H]1N=C(c2ccc(Cl)cc2)c2cc(OCCOCCNC(=O)c3cccc(O)c3O)ccc2-n2c(C)nnc21
- IC50 (NAMALVA [1]): 51300 nM
- Activity [2]: inactive
- Activity [3]: inactive
- IC50 (NAMALVA [4]): 724 nM
- Activity [5]: Active
- Activity [6]: Active
- Activity [7]: Active

SMILES: CCNC(=O)C[C@@H]1N=C(c2ccc(Sc3ccccc3)cc2)c2cc(OC)ccc2-n2c(C)nnc21
- Activity [8]: inactive

SMILES: CCNC(=O)C[C@@H]1N=C(c2ccc(Cl)cc2)c2cc(-c3cccc(B(O)O)c3)ccc2-n2c(C)nnc21
- Activity [9]: inactive
- Activity [10]: Active

- Activity [12]: Active
- Activity [13]: Active
- Activity [14]: Active
SMILES: COc1ccc(C2=N[C@H](c3ccc(Cl)cc3)[C@@H](c3ccc(Cl)cc3)N2C(=O)N2CCN(CCNC(=O)c3ccc(B(O)O)cc3)C(=O)C2)c(OC(C)C)c1
- IC50 (NAMALVA [11]): 724 nM

- Activity [15]: inactive
SMILES: Cc1ncsc1-c1ccc(CNC(=O)[C@@H]2C[C@@H](O)CN2C(=O)[C@@H](NC(=O)c2ccc(O)c(O)c2)C(C)(C)C)cc1

SMILES: CCNC(=O)C[C@@H]1N=C(c2ccc(Sc3cccc(B(O)O)c3)cc2)c2cc(OC)ccc2-n2c(C)nnc21
- Activity [16]: Active
- Activity [17]: Active
- Activity [18]: Dose-Dependent Effect

- Activity [9]: inactive
- Activity [19]: Active
- Activity [20]: Active
- Activity (BRD2/CRBN (Homo sapiens)): Active
SMILES: O=C1CCC(N2C(=O)c3cccc(CNC(=O)c4cccc(O)c4O)c3C2=O)C(=O)N1 (configuration not stated)
